Measured values published in ChEMBL document CHEMBL1139277, “Synthesis of tyrosinase inhibitory (4-oxo-4H-pyran-2-yl)acrylic acid ester derivatives” (Bioorg Med Chem Lett, 2009).

Key:
B16-F10 [1] = test: Inhibition of melanin production in mouse B16F10 cells at 20 ug/ml after 72 hrs relative to control; format: functional; settings: B16-F10, 72 h
B16-F10 [2] = test: Inhibition of melanin production in mouse B16F10 cells at 40 ug/ml after 72 hrs relative to control; format: functional; settings: B16-F10, 72 h
B16-F10 [3] = test: Cytotoxicity against mouse B16F10 cells at 20 ug/ml after 72 hrs by MTT assay; format: functional
B16-F10 [4] = test: Cytotoxicity against mouse B16F10 cells at 40 ug/ml after 72 hrs by MTT assay; format: functional
Tyrosinase = molecular target: T1, Tyrosinase (Agaricus bisporus, UniProt O42713); test: Inhibition of mushroom tyrosinase
T1 sequence (O42713 whole entry): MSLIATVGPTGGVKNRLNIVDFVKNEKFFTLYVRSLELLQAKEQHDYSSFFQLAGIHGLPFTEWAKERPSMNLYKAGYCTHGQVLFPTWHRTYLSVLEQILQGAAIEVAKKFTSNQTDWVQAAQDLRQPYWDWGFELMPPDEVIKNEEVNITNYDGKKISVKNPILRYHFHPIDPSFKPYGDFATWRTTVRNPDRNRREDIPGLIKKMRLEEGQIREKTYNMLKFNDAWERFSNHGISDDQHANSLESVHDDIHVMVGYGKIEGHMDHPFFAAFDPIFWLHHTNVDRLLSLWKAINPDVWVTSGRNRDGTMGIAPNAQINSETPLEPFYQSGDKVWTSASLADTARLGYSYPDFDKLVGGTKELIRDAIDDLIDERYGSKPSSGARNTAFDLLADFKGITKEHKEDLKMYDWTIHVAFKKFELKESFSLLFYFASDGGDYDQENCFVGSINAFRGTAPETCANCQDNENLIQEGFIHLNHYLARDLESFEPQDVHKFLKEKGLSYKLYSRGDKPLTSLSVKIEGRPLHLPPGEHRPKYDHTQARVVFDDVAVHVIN

## CC(C)OC(=O)/C=C/c1cc(=O)c(O)co1
B16-F10 [1]
  inhibition at 20 µg/mL: 19.5%
B16-F10 [2]
  inhibition at 40 µg/mL: 69.8%
B16-F10 [3]
  Activity: 50.9%
B16-F10 [4]
  Activity: 37.4%
Tyrosinase
  IC50: 80.3 µM

## CCOC(=O)/C=C/c1cc(=O)c(O)co1
B16-F10 [1]
  inhibition at 20 µg/mL: 46.1%
B16-F10 [2]
  inhibition at 40 µg/mL: 65%
B16-F10 [3]
  Activity: 72%
B16-F10 [4]
  Activity: 39.2%
Tyrosinase
  IC50: 36.3 µM

## COCCOCCOCCOC(=O)/C=C/c1cc(=O)c(O)co1
B16-F10 [1]
  inhibition at 20 µg/mL: 11%
B16-F10 [2]
  inhibition at 40 µg/mL: 25.4%
B16-F10 [3]
  Activity: 83.9%
B16-F10 [4]
  Activity: 79.7%
Tyrosinase
  IC50: 67.6 µM

## O=C(/C=C/c1cc(=O)c(O)co1)OCCOCCOCCO
B16-F10 [1]
  inhibition at 20 µg/mL: 8.7%
B16-F10 [2]
  inhibition at 40 µg/mL: 17.9%
B16-F10 [3]
  Activity: 84.9%
B16-F10 [4]
  Activity: 78.5%
Tyrosinase
  IC50: 79.2 µM

## COCCOCCOC(=O)/C=C/c1cc(=O)c(O)co1
B16-F10 [1]
  inhibition at 20 µg/mL: 19.5%
B16-F10 [2]
  inhibition at 40 µg/mL: 24%
B16-F10 [3]
  Activity: 88.7%
B16-F10 [4]
  Activity: 83.4%
Tyrosinase
  IC50: 59.1 µM

## CCCCCCCCOC(=O)/C=C/c1cc(=O)c(O)co1
B16-F10 [1]
  inhibition at 20 µg/mL: 25%
B16-F10 [2]
  inhibition at 40 µg/mL: 54.6%
B16-F10 [3]
  Activity: 85%
B16-F10 [4]
  Activity: 62.5%
Tyrosinase
  IC50: > 400 µM

## O=C(/C=C/c1cc(=O)c(O)co1)OCCOCCO
B16-F10 [1]
  inhibition at 20 µg/mL: 20.1%
B16-F10 [2]
  inhibition at 40 µg/mL: 32.4%
B16-F10 [3]
  Activity: 84.6%
B16-F10 [4]
  Activity: 89.4%
Tyrosinase
  IC50: 26.5 µM

## O=C(/C=C/c1cc(=O)c(O)co1)OCCO
B16-F10 [1]
  inhibition at 20 µg/mL: 30%
B16-F10 [2]
  inhibition at 40 µg/mL: 41.6%
B16-F10 [3]
  Activity: 80.5%
B16-F10 [4]
  Activity: 74.8%
Tyrosinase
  IC50: 74.9 µM

## COCCOC(=O)/C=C/c1cc(=O)c(O)co1
B16-F10 [1]
  inhibition at 20 µg/mL: 29.6%
B16-F10 [2]
  inhibition at 40 µg/mL: 47.8%
B16-F10 [3]
  Activity: 81.1%
B16-F10 [4]
  Activity: 65.4%
Tyrosinase
  IC50: 98.1 µM
